Experimental data taken from ChEMBL document CHEMBL3046526, “-Glucosidase inhibitory and antioxidant properties and antidiabetic activity of Hypericum ascyron L” (Med Chem Res, 2011).
Values after ≈ are worked out from the molar mass of the structure shown.

Assays:
[1] = system: Radical scavenging activity; experiment: Antioxidant activity assessed as inhibition of DPPH radical production after 30 min by microplate assay; format: functional
[2] = system: Radical scavenging activity; experiment: Antioxidant activity assessed as inhibition of DPPH radical production at 54.05 ug/ml after 30 min by microplate assay; format: functional
[3] = target: Lysosomal alpha-glucosidase (Rattus norvegicus) (UniProt Q6P7A9); experiment: Inhibition ofRattus norvegicus alpha-glucosidase isolated from intestine using PNPG as substrate at 0.03 uM incubated for 15 min prior to substrate addition measured after 15 min by spectrophotometric analysis
Lysosomal alpha-glucosidase (Rattus norvegicus), sequence (Q6P7A9 whole entry): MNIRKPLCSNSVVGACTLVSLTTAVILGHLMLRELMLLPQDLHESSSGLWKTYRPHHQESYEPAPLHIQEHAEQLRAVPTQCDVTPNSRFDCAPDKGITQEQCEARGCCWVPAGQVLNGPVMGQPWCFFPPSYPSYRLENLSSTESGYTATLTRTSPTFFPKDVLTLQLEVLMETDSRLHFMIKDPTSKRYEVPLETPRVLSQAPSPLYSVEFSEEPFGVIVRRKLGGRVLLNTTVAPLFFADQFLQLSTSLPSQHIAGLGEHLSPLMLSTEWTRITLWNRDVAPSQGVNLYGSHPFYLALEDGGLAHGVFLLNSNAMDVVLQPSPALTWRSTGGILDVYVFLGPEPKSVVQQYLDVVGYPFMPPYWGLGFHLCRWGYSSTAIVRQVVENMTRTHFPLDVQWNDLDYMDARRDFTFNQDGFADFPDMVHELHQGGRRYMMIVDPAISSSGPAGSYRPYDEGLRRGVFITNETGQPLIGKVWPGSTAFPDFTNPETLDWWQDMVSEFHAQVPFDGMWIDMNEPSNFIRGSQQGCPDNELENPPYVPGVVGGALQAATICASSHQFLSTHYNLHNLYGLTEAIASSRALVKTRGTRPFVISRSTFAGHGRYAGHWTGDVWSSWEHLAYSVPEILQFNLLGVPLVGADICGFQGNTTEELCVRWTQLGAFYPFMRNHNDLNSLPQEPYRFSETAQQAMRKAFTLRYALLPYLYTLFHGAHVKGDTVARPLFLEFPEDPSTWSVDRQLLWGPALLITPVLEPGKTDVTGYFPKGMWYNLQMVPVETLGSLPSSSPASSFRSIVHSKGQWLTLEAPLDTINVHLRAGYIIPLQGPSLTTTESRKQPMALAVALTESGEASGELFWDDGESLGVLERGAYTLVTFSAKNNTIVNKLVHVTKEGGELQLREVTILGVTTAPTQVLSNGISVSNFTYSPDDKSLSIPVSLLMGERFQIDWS

[4] = Inhibition of alpha-glucosidase (unknown origin) using PNPG as substrate incubated for 15 min prior to substrate addition measured after 15 min by spectrophotometric analysis; parameters: species or system Homo sapiens
[5] = organism: Homo sapiens; experiment: Inhibition of alpha-glucosidase (unknown origin) using PNPG as substrate at 0.03 uM incubated for 15 min prior to substrate addition measured after 15 min by spectrophotometric analysis
[6] = target: Lysosomal alpha-glucosidase (Rattus norvegicus) (UniProt Q6P7A9); experiment: Inhibition ofRattus norvegicus alpha-glucosidase isolated from intestine using PNPG as substrate at 0.02 uM incubated for 15 min prior to substrate addition measured after 15 min by spectrophotometric analysis
[7] = Inhibition of alpha-glucosidase (unknown origin) using PNPG as substrate at 0.02 uM incubated for 15 min prior to substrate addition measured after 15 min by spectrophotometric analysis; details: Homo sapiens
[8] = system: Radical scavenging activity; experiment: Antioxidant activity assessed as inhibition of DPPH radical production at 10.81 ug/ml after 30 min by microplate assay; format: functional
[9] = organism: Homo sapiens; experiment: Inhibition of alpha-glucosidase (unknown origin) using PNPG as substrate at 0.83 uM incubated for 15 min prior to substrate addition measured after 15 min by spectrophotometric analysis
[10] = target: Lysosomal alpha-glucosidase (Rattus norvegicus) (UniProt Q6P7A9); details: 0.83 uM
Description: Inhibition ofRattus norvegicus alpha-glucosidase isolated from intestine using PNPG as substrate at 0.83 uM incubated for 15 min prior to substrate addition measured after 15 min by spectrophotometric analysis

[11] = system: Radical scavenging activity; experiment: Antioxidant activity assessed as inhibition of DPPH radical production at 108.11 ug/ml after 30 min by microplate assay; format: functional

Row | Compound | IC50 [1] [µg/mL] | IC50 [4] [µM] | inhibition [6] [%] | inhibition [7] [%] | inhibition [2] [%] | also measured
1 | O=c1c(O)c(-c2ccc(O)cc2)oc2cc(O)cc(O)c12 [KAEMPFEROL] | 14.78 (≈ 51.6 µM) | 61.8 | – | – | 90.1 | inhibition [3]: 99.3%; inhibition [5]: 51.5%
2 | C[C@H]1[C@H](C)CC[C@]2(C(=O)O)CC[C@]3(C)C(=CC[C@@H]4[C@@]5(C)CC[C@H](O)C(C)(C)[C@@H]5CC[C@]43C)[C@H]12 [URSOLIC ACID] | – | 1.78 | < 50 | 99.7 | – | –
3 | CCCOC(=O)c1cc(O)c(O)c(O)c1 [PROPYL GALLATE] | 3.96 (≈ 18.7 µM) | – | – | – | – | inhibition [8]: 89%
4 | C[C@H]1O[C@H](O[C@H]2[C@H](O)[C@@H](O)[C@@H](O[C@H]3[C@H](O)[C@@H](O)C(O)O[C@@H]3CO)O[C@@H]2CO)[C@H](O)[C@@H](O)[C@@H]1N[C@H]1C=C(CO)[C@@H](O)[C@H](O)[C@H]1O (some centres undefined) [ACARBOSE] | – | 895 | – | – | – | inhibition [9]: 68.4%; inhibition [10]: 55.2%
5 | Cc1cc(C(C)(C)C)c(O)c(C(C)(C)C)c1 [BUTYLATED HYDROXYTOLUENE] | 40.8 (≈ 185 µM) | – | – | – | – | inhibition [11]: 80.5%
6 | O=c1c(O)c(-c2ccc(O)c(O)c2)oc2c(O)ccc(O)c12 | – | – | – | – | 2.63 | inhibition [3]: < 50%; inhibition [5]: 14.3%

Now from value to molecule, other results behind:

Row | IC50 [1] [µg/mL] | IC50 [4] [µM] | inhibition [6] [%] | inhibition [7] [%] | Compound | inhibition [2] [%] | also measured
7 | – | – | < 50 | 18 | O=c1c(O[C@@H]2O[C@H](CO)[C@@H](O)[C@H](O)[C@H]2O)c(-c2ccc(O)cc2)oc2cc(O)cc(O)c12 | 1.96 | –
8 | 24.02 (≈ 51.7 µM) | – | < 50 | 14.4 | O=c1c(O[C@@H]2O[C@H](CO)[C@@H](O)[C@H](O)[C@H]2O)c(-c2ccc(O)c(O)c2)oc2cc(O)cc(O)c12 [ISOQUERCETIN] | 86.1 | –
9 | 24.02 (≈ 51.7 µM) | – | < 50 | 14.2 | O=c1c(O[C@@H]2O[C@H](CO)[C@H](O)[C@H](O)[C@H]2O)c(-c2ccc(O)c(O)c2)oc2cc(O)cc(O)c12 [HYPEROSIDE] | 86.5 | –
